By IC50 is commonly meant the concentration needed to halve the response being measured. By EC50 is commonly meant the concentration that produces a half-maximal response. What is called AC50 is the concentration at which the activity in the assay is half-maximal.

The target of assay [1] is T1, Carboxy-terminal domain RNA polymerase II polypeptide A small phosphatase 1 (Homo sapiens, UniProt Q9GZU7).
T1 sequence (Q9GZU7 whole entry): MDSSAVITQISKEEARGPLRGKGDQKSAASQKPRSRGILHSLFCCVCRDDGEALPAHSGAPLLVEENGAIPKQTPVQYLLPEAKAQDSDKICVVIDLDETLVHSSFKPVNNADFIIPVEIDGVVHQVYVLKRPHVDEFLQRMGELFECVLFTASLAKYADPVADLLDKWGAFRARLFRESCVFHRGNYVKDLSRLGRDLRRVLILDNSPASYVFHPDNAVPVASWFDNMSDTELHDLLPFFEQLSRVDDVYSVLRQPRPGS
The assay is described as follows: CTDSP1 inhibitors, concentration-response, biochemical, absorbance readout, ultra-high-throughput screen actives (AID 540297). The class given is functional.

Assay [2] concerns the target T2, Exodeoxyribonuclease V (Escherichia coli (strain K12), UniProt P04993+P07648+P08394).
T2 sequence (P04993 whole entry): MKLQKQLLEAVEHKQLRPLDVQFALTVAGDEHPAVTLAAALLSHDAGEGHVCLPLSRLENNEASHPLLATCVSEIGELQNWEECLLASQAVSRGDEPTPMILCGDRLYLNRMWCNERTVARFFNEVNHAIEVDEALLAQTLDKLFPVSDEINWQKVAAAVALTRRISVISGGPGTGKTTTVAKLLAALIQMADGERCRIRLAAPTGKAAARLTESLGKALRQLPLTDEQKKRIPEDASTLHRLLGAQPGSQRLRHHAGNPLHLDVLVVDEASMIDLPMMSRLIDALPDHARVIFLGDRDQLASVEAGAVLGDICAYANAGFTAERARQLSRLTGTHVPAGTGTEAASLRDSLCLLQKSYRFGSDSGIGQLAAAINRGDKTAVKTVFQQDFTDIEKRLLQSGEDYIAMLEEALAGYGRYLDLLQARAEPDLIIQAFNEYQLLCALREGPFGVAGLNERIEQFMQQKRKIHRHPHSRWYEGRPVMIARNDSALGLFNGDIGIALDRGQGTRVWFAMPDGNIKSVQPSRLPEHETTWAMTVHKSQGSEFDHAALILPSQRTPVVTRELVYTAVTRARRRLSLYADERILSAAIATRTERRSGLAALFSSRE
T2 sequence (P07648 whole entry): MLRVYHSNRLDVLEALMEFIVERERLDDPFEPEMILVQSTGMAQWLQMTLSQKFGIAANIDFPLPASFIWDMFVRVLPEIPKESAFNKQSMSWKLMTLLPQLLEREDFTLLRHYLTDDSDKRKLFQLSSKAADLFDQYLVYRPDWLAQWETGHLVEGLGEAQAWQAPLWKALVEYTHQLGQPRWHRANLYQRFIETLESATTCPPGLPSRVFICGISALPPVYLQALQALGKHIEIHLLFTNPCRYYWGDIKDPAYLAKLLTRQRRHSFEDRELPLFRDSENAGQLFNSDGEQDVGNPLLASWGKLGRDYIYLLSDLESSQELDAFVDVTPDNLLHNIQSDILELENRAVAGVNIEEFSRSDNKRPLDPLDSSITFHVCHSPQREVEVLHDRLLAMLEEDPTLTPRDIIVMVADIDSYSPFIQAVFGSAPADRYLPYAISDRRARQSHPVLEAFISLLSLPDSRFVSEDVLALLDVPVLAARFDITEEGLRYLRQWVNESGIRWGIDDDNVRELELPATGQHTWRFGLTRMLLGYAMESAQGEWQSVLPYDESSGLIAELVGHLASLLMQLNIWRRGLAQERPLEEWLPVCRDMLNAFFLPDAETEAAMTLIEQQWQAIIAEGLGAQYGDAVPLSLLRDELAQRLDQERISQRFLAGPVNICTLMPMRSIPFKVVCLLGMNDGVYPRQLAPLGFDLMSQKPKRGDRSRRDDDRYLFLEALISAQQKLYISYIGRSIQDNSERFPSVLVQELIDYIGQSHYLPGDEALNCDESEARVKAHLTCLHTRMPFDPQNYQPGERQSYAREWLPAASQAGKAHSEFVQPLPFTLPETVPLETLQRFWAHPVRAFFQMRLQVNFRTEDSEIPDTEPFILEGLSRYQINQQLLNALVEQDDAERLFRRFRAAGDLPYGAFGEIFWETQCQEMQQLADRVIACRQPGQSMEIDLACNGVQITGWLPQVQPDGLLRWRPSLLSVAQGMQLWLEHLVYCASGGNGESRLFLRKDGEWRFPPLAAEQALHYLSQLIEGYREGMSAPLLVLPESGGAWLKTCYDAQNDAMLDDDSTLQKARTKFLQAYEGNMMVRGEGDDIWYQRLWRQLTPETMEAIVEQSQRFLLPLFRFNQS
T2 sequence (P08394 whole entry): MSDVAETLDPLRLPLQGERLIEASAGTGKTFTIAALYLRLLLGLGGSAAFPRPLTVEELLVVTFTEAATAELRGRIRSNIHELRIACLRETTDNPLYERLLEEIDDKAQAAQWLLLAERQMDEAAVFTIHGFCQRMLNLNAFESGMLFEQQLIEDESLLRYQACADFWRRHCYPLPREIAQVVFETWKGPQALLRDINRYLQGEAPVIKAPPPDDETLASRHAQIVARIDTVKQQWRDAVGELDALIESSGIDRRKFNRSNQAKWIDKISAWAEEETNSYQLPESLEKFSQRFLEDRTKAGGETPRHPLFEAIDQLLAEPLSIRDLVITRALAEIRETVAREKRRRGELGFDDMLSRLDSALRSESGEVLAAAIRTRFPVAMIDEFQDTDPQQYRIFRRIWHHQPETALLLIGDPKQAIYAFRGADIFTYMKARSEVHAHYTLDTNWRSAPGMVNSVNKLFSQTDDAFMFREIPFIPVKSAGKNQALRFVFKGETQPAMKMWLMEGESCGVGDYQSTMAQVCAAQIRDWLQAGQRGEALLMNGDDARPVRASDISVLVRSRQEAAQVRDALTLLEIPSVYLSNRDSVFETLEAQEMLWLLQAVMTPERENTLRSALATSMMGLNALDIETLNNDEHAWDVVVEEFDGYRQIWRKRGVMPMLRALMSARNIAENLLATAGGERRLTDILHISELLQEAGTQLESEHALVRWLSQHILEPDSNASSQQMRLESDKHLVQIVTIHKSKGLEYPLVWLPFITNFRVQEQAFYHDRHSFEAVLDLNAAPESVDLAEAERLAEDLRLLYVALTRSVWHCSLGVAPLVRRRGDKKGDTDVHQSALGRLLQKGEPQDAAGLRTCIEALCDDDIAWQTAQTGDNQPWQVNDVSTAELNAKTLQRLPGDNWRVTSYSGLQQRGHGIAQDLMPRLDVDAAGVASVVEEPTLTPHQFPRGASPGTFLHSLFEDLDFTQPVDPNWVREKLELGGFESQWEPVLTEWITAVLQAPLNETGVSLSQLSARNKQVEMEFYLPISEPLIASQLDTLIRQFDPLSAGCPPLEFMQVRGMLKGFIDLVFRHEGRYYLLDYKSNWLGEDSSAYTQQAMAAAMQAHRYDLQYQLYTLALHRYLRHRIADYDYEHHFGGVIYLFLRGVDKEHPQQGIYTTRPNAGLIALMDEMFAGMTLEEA
The assay is described as follows: RecBCD inhibition via phage-restricted bacterial growth – absorbance, V66 E. coli, mutant T4 phage, counter-screen for AddAB inhibitor project, dose response (AID 492957). In kind it is functional, cell-based, Escherichia coli str. K-12 substr. MG1655. On the technique in general: Counterscreens check selectivity or assay interference.

The nature of assay [3]: Counterscreen for AddAB inhibitors: absorbance-based bacterial cell-based high throughput dose response assay for inhibitors of bacterial viability. [Related pubchem assays (depositor defined):AID435030, AID449728, AID449731, AID488942, AID488955, AID488956]. The class given is functional.
Assay [4] concerns the target DNA dC->dU-editing enzyme APOBEC-3A (Homo sapiens, UniProt P31941). The assay is described as follows: Dose Response confirmation of small molecule APOBEC3A DNA Deaminase Inhibitors via a fluorescence-based single-stranded DNA deaminase assay. [Related pubchem assays (depositor defined):AID493011, AID493024]. In kind it is functional.
Assay [5] addresses DNA dC->dU-editing enzyme APOBEC-3G (Homo sapiens, UniProt Q9HC16). In kind it is functional.
The nature of assay [6]: microbe, parasite or virus in culture. The class given is functional. The conditions noted are these: Mycobacterium tuberculosis.
The target of assay [7] is T3, Short transient receptor potential channel 4 (Mus musculus, UniProt Q9QUQ5).
T3 sequence (Q9QUQ5 whole entry): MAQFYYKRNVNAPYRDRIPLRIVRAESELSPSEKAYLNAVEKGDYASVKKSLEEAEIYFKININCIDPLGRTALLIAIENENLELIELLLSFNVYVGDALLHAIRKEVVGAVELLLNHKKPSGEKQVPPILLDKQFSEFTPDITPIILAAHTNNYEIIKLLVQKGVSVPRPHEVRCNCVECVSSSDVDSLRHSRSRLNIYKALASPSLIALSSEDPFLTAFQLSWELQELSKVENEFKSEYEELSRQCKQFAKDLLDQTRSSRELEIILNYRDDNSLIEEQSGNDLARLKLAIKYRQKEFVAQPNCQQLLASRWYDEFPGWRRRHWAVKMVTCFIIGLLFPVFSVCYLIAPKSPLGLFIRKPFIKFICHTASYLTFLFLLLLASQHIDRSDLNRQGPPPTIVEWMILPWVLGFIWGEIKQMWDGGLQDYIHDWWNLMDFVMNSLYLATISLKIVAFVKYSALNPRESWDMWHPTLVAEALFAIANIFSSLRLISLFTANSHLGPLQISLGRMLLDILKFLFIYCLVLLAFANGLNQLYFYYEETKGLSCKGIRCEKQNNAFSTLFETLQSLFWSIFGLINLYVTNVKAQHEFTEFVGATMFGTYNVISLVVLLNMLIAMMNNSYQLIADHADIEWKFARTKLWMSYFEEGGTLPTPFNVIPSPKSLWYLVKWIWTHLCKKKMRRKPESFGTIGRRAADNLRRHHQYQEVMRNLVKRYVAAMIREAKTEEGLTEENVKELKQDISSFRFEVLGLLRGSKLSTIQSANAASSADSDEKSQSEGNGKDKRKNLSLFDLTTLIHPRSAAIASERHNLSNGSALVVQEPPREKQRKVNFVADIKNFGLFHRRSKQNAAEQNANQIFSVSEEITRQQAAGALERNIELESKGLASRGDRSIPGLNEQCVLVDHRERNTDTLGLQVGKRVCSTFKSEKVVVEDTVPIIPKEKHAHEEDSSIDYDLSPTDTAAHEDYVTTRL
The experiment in a line: calcium entry via TRPC4 opening agents – cell-based, HEK293 TRPC4/mu-opioid, Fluo-4 calcium, dose response (AID 434937). The class given is functional.

The target in assay [8] is Heat shock protein HSP 90-alpha (Homo sapiens, UniProt P07900). The class given is functional, organism-based.
Assay [9] has as its target T3, Short transient receptor potential channel 4. The experiment in a line: block of DAMGO-driven TRPC4 calcium entry – cell-based, HEK293 TRPC4/mu-opioid, Fluo-4 calcium, dose response (AID 434942).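 Also: potency of inhibitors blocking the TRPC4 calcium response.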 The class given is functional.
The nature of assay [10]: intracellular Trypanosoma cruzi inhibitors in host cells – cell-based, plate reader, cherry-pick samples, set 3, dose response (AID 651818).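 Also: compounds incubated with infected cells for about four days.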 In kind it is functional.

Active and inactive are the calls of the source.

Chain of DNA dC->dU-editing enzyme APOBEC-3A (P31941 whole entry): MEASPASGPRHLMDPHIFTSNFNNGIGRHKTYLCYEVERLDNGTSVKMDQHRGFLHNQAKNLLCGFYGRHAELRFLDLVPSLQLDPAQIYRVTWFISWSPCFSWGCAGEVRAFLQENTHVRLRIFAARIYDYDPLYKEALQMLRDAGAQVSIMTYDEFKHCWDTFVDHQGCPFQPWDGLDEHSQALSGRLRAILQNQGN
Chain of DNA dC->dU-editing enzyme APOBEC-3G (Q9HC16 whole entry): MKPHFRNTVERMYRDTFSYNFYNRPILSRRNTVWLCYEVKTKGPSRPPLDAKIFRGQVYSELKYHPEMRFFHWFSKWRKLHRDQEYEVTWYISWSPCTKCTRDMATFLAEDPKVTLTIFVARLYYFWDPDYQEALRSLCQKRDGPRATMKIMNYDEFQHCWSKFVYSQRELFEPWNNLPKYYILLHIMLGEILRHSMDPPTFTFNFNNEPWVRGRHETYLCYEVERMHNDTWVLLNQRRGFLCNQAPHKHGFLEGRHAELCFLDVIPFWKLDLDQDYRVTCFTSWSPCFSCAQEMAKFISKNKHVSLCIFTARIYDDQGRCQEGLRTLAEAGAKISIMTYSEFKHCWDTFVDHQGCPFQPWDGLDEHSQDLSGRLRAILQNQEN

In the case of `COC(=O)Cn1c(=O)c2c(n(Cc3ccccc3)c1=O)=N/C(=C/c1ccc(Br)cc1)C=2O`, the concentration for half-maximal inhibition (IC50) in assay [1] is 5.15 µM (active). Turning to `COc1ccc(NC(=O)CSc2nnc(-c3ccc(F)cc3)o2)cn1`, the IC50 in assay [2] and in assay [3] was > 119 µM (inactive) each time. Turning to `CCCCn1nc(NC(=O)COC)c2cc3ccc(C)cc3nc21`, the IC50 was 3.49 µM (active) in assay [4] and 5 µM (active) in [5].

`O=C(Nc1nc2c(s1)CCCC2)C1CCCN1C(=O)c1cccs1` (centres undefined): the concentration for half-maximal inhibition (IC50) in assay [4] was 10 µM (active); in assay [5], 15.8 µM (active). `CCC(C)NC(=O)c1cn(CC)c2cc(N3CCN(C(=O)c4ccco4)CC3)c(F)cc2c1=O` (centres undefined): in assay [6], the CC50 is > 40 µM (active). Further, the IC50 is 89.9 µM (inactive) in assay [2] and 22 µM (inactive) in assay [3]. For the compound `CCOc1ccccc1OCC(=O)Nc1cc(S(=O)(=O)N2CCCCC2)ccc1N1CCN(CC)CC1`, the half-maximal inhibitory concentration (IC50) in [4] was 5.85 µM (active); in assay [5], 6.44 µM (active). In assay [7], the EC50 is 4.22 µM (active).

Consider `COc1cc(OC)c(CN2CCC(Cc3ccccc3)CC2)cc1Br`, for which the EC50 in assay [7] is 2.66 µM (active). As for `Cc1cc(Cl)ccc1N=C(S)NCc1ccccc1Cl`, the IC50 in assay [2] and in [3] was > 119 µM (inactive) each time. As to `Cc1ccc(C)c(NC(=O)CSc2sc3c(O)cc(=O)[nH]c3c2C#N)c1`, the IC50 in assay [1] is 6.09 µM (active). For the compound `O=C(O)c1cn(-c2ccc(N3CCCC3)c(F)c2)c2c(F)c(F)c(F)cc2c1=O`, the IC50 was > 119 µM (inactive) in assay [2] and 64.9 µM (inactive) in assay [3]. Also, in [8], the half-maximal activity concentration (AC50) is 4.37 µM (active). Take `CN(C)C(CNC(=O)C1CCN(S(=O)(=O)c2cccc(C(F)(F)F)c2)CC1)c1ccccc1` (centres undefined): the half-maximal effective concentration (EC50) in assay [9] is 421 nM (active); in assay [7], 0.376 µM (active). Consider `Cc1ccc(C)c(OCCC(=O)OCC(=O)N2c3ccccc3NC(=O)C2(C)C)c1`, for which the IC50 in [4] was 11 µM (active); in assay [5] it was 10.4 µM (active).

With `C[C@@H]1CCCCO[C@H](CN(C)Cc2ccc(Cl)c(Cl)c2)[C@@H](C)CN([C@H](C)CO)C(=O)c2cc(NS(=O)(=O)c3ccc(F)cc3)ccc2O1`, the half-maximal activity concentration (AC50) in [10] is 4.79 µM (active). The same measure, in the same setting: the same measure for `C[C@@H]1CN([C@H](C)CO)C(=O)Cc2cc(NC(=O)Nc3cccc4ccccc34)ccc2O[C@@H]1CN(C)Cc1ccc(Oc2ccccc2)cc1`: 2.15 µM (active). As for `O=C(COc1cccc([N+](=O)[O-])c1)N/N=C/c1ccco1`, the IC50 in [1] was 13.9 µM (active). Regarding `Cc1cc(NS(=O)(=O)c2ccc(N)cc2)no1` [SULFAMETHOXAZOLE], the IC50 in [2] was > 119 µM (inactive); in assay [3] it was 29.2 µM (inactive).

The values are drawn from ChEMBL document CHEMBL1201862, “PubChem BioAssay data set” (2004).
